Laboratory results published in a melting point compilation (Tetko et al.; mined from patent text by program, amines drawn as free bases though some values may be those of a salt).

SMILES | melting point [°C]
O=C(CCCCC1SCC2NC(=O)NC21)NCCOCCOCCN1C(=O)C(Br)=C(Br)C1=O (centres undefined) | 100 to 102
CCOC(=O)CC(=O)c1cc(F)c(Br)cc1F | 51 to 53
CC(C)=NNc1cc2c(nn1)CCN(C(=O)C1CCC1)C2 | 175 to 178
CS(=O)(=O)CC(=O)NC(=O)N1CC1C#N (centres undefined) | 126 to 128
CC(C)c1ccc(-c2nc(-c3cccc(C(=O)O)c3)cs2)cc1 | 193 to 195
CCCN(c1ccncc1Cl)n1cc(C)c2ccccc21 | 68 to 70
CSc1ccc(C2=C(c3ccc(Cl)cc3)CCC2)cc1 | 72 to 74
CN(C)C(=N[N+](=O)[O-])NCc1ccc(Cl)nc1 | 160 to 162
CC(=O)N1CCN(c2nc(N)ncc2Oc2ccc(Cl)cc2)CC1 | 153 to 157
CC(C)C[C@H](NC(=O)[C@@H]1CCC(=O)O1)C(=O)OC(C)(C)C | 79 to 81
CCc1nc(-c2cccc(C(=O)OC)c2)c(-c2ccnc(N)c2)s1 | 173 to 174
O=C(OC1CCCCC1=O)c1ccc(Cl)cc1 (centres undefined) | 84 to 85
CC(=O)O[C@H]1CCCNC1=O | 77 to 78
Cc1cc(=O)oc2cc(NC(=O)CO)ccc12 | 253 to 254
CC(C)[C@H](NC(=O)N(C)Cc1ccccn1)C(=O)N[C@@H](Cc1ccccc1)[C@@H](O)[C@@H](O)[C@H](Cc1ccccc1)NC(=O)OC(C)(C)C | 91 to 93
COc1ccc(NC(=O)c2ccc(F)c(F)c2)cc1NCc1cccc(O)c1 | 174 to 176
CCOC(=O)c1ccccc1S(=O)(=O)NC(=O)Nc1nc(Cl)cc(OC(F)(F)F)n1 | 148 to 151
CCOC(=O)C(=O)Nc1sccc1C(N)=O | 186 to 187
Cc1cn([C@H]2CC(N=[N+]=[N-])[C@@H](COC(=O)C(C)(C)CC(=O)N[C@@H](Cc3ccccc3)[C@H](O)C(=O)N3CSC(C)(C)[C@H]3C(=O)NC(C)(C)C)O2)c(=O)[nH]c1=O (some centres undefined) | 95 to 97
Cc1cc(O)c(Cc2ccc(C(C)C)cc2)c(C)c1N(Cc1ccccc1)C(=O)CC(C)(C)C | 167 to 168

SMILES | melting point [°C]
O[C@@H]1CN(CCNc2ncccn2)CC[C@H]1NCc1ccccc1 (relative stereo) | 127
O=C(O)C1CCN(C(=O)NS(=O)(=O)C=Cc2ccccc2)CC1 | 179 to 181
O=C1C=CC(O)(c2nc3ccccc3s2)C=C1 | 63 to 66
CCNc1nc2ccccc2n2c(CC)nnc12 | 235 to 238
COc1cc2c(cc1OC)OCC(=O)C2 | 126 to 130
COc1ccc(CC2CCN(C(=O)NC(=O)c3ccc(O)cc3)CC2)cc1 | 190
CC1c2ccccc2CCON1C(N)=O (centres undefined) | 128 to 129
CCCCSc1nc(N)c(C(=O)c2ccccc2)s1 | 91 to 94
CCOP(=O)(Cc1cccc(CN2C(=O)c3ccccc3C2=O)c1)OCC | 100 to 101
Cc1oc(-c2ccccc2)nc1COc1cc(CCl)on1 | 105 to 106
CCc1c(C)noc1NS(=O)(=O)c1cccc2c(N(C)C)cccc12 | 55 to 85
COc1cc(C2(O)NC(=O)c3cc(OCc4ccccc4)ccc32)cc(OC)c1OC (centres undefined) | 187 to 189
Nc1cc(C(F)(F)C(F)(F)OC(F)(F)C(F)(F)OC(F)(F)C(F)(F)c2ccc(O)c(N)c2)ccc1O | 150 to 152
CCCCCCCCCCCCCCCCCCOc1ccc(C(C)=O)cc1 | 69 to 70
O=C1C(c2ccccc2)c2ccccc2SN1c1ccccc1O (centres undefined) | 165 to 168
CCOc1ccc(OCC(=O)O)c2c1C(=O)N(CSc1nnnn1-c1ccccc1)S2(=O)=O | 187 to 189
COc1ccnc(CCc2nc3ccc(OC)nc3[nH]2)c1 | 93 to 95
CC(=O)c1c(-c2ccncc2)[nH]c(-c2ccncc2)c1CO | 205 to 207
CCCNC(=O)C(C)Cc1ccc2c(c1)c(Cc1ccc(C(=O)NS(=O)(=O)c3ccccc3C)cc1OC)cn2C(C)C (centres undefined) | 182 to 184
